The target in one test is T1, KRAS G12V (Homo sapiens, UniProt P01116, G12V).
T1 construct: SW620-KRAS (G12V)-HiBit-KI cell (Pharmaron); host or cells: SW620-KRAS (G12V)-HiBit-KI cells (HiBiT knock-in at the endogenous KRAS locus)
The test can be described thus: KRAS G12V HiBit assay. It counts as cell-based. The conditions noted are these: SW620-KRAS (G12V)-HiBit-KI cells, compound treatment for 24 hours, class symbols. An outline of the steps:
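HiBiT-tagged KRAS G12V cells treated 24 h with compound in a 3-fold, 10-point series (0.3 mM DMSO stock); lytic HiBiT reagent with LgBiT added after 15 min room-temperature equilibration. Degradation calculated against 0.1% DMSO high control.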
In general terms: With HiBiT, luminescence reflects the tagged protein that the partner subunit can reach.

The next test concerns the target T2, KRAS G12D (Homo sapiens, UniProt P01116, G12D).
T2 construct: AsPc-1-KRAS (G12D)-HiBit-KI cell (Pharmaron); host or cells: AsPc-1-KRAS (G12D)-HiBit-KI cells (HiBiT knock-in at the endogenous KRAS locus)
The test can be described thus: KRAS G12D HiBit assay. It counts as cell-based. As to conditions: AsPc-1-KRAS (G12D)-HiBit-KI cell, compound treatment for 24 hours; for DC50: absolute DC50. Put shortly:
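Cells were treated for 24 h with compounds in a 3-fold, 10-point dilution series from a 0.3 mM DMSO stock, then equilibrated 15 min at room temperature. KRAS G12D HiBiT levels were read by luminescence after lytic Nano-Glo HiBiT reagent with LgBiT; inhibition calculated relative to 0.1% DMSO high control.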

The mark [1] stands for this setting: numeric bounds given in place of class symbols.

This passage reports DC50 and Dmax results from patent publication US12599672B2, “KRAS proteolysis targeting chimeras” (PAQ Therapeutics Inc., priority 2023, dated 2026).

T2 sequence (P01116 1-188 isoform P01116-2 G12D): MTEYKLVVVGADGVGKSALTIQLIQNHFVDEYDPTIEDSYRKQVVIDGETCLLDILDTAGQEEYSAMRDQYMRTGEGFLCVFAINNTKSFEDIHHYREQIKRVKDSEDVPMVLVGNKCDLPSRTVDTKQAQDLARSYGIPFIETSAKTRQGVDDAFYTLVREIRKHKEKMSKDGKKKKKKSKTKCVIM
T1 sequence (P01116 1-188 isoform P01116-2 G12V): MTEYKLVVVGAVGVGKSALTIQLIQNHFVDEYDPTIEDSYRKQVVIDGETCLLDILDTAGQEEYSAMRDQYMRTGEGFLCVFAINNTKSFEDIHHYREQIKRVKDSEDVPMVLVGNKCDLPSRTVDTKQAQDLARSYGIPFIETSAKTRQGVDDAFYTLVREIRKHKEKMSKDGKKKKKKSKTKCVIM

For `CCc1c(F)ccc2cc(O)cc(-c3ncc4c(N5CCC[C@@](C)(O)C5)nc(OC[C@@]56CCCN5[C@H](COC(=O)N5CCC7(CC5)CN(C5CCN(c8ccc9c(c8)n(C)c(=O)n9C8CCC(=O)NC8=O)CC5)C7)CC6)nc4c3F)c12` (stereo partly drawn) [Compound 463, ((3S,7aS)-7a-(((7-(8-ethyl-7-fluoro-3-hydroxynaphthalen-1-yl)-8-fluoro-4-((R)-3-hydroxy-3-methylpiperidin-1-yl)pyrido[4,3-d]pyrimidin-2-yl)oxy)methyl)hexahydro-1H-pyrrolizin-3-yl)methyl 2-(1-(1-(2,6-dioxopiperidin-3-yl)-3-methyl-2-oxo-2,3-dihydro-1H-benzo[d]imidazol-5-yl)piperidin-4-yl)-2,7-diazaspiro[3.5]nonane-7-carboxylate], the values for the DC50 on KRAS G12V and at KRAS G12D (class symbols) were less than 0.01 µM and less than 0.1 µM, respectively.

For `C#Cc1c(F)ccc2cc(O)cc(-c3ncc4c(N5CCC[C@@](C)(O)C5)nc(OC[C@@]56CCCN5[C@H](COC(=O)N5CCC(OCCC#Cc7cccc8c7n(C)c(=O)n8C7CCC(=O)NC7=O)CC5)CC6)nc4c3F)c12` (stereo partly drawn) [Compound 127, ((3S,7aS)-7a-(((7-(8-Ethynyl-7-fluoro-3-hydroxynaphthalen-1-yl)-8-fluoro-4-((R)-3-hydroxy-3-methylpiperidin-1-yl)pyrido[4,3-d]pyrimidin-2-yl)oxy)methyl)hexahydro-1H-pyrrolizin-3-yl)methyl 4-((4-(1-(2,6-dioxopiperidin-3-yl)-3-methyl-2-oxo-2,3-dihydro-1H-benzo[d]imidazol-4-yl)but-3-yn-1-yl)oxy)piperidine-1-carboxylate], the DC50 is 0.01 to 0.1 µM at KRAS G12V and less than 0.1 µM on KRAS G12D (class symbols).

Consider `C#Cc1c(F)ccc2cc(O)cc(-c3ncc4c(N5CCC[C@@](C)(O)C5)nc(OCC5(CN6CCC(CN7CCN(c8ccc9c(c8)n(C)c(=O)n9C8CCC(=O)NC8=O)CC7)CC6)CC5)nc4c3F)c12` (some centres unmarked) [Compound 25], for which the DC50 at KRAS G12V is less than 0.01 µM; on KRAS G12D (class symbols) it was less than 0.1 µM.

For the molecule `C#Cc1cccc2cc(O)cc(-c3ncc4c(N5CCC[C@@](C)(O)C5)nc(OC[C@@]56CCCN5[C@H](COC(=O)N5CCC(CN7CCC(c8ccc9c(c8)n(C)c(=O)n9C8CCC(=O)NC8=O)CC7)CC5)CC6)nc4c3F)c12` (some centres unmarked) [Compound 144], the DC50 on KRAS G12V is less than 0.01 µM; at KRAS G12D (class symbols), less than 0.1 µM.

For `C#Cc1c(F)ccc2cccc(-c3ncc4c(N5CCC[C@@](C)(O)C5)nc(OC[C@@]56CCCN5[C@H](COC(=O)N5CCC(N7CCC(c8ccc9c(c8)n(C)c(=O)n9C8CCC(=O)NC8=O)CC7)CC5)CC6)nc4c3F)c12` (stereo partly drawn) [Compound 128, ((3S,7aS)-7a-(((7-(8-Ethynyl-7-fluoronaphthalen-1-yl)-8-fluoro-4-((R)-3-hydroxy-3-methylpiperidin-1-yl)pyrido[4,3-d]pyrimidin-2-yl)oxy)methyl)hexahydro-1H-pyrrolizin-3-yl)methyl 4-(1-(2,6-dioxopiperidin-3-yl)-3-methyl-2-oxo-2,3-dihydro-1H-benzo[d]imidazol-5-yl)-[1,4′-bipiperidine]-1′-carboxylate], the DC50 was more than 0.1 µM on KRAS G12V and more than 0.3 µM at KRAS G12D (class symbols).

On to `CCc1c(F)ccc2cc(O)cc(-c3ncc4c(N5CCC[C@@](C)(O)C5)nc(OC[C@@]56CCCN5[C@H](COC(=O)N5CCC(Oc7ccc(-c8ccc9c(c8)n(C)c(=O)n9C8CCC(=O)NC8=O)cc7)CC5)CC6)nc4c3F)c12` (stereo partly drawn) [Compound 496, ((3S,7aS)-7a-(((7-(8-ethyl-7-fluoro-3-hydroxynaphthalen-1-yl)-8-fluoro-4-((R)-3-hydroxy-3-methylpiperidin-1-yl)pyrido[4,3-d]pyrimidin-2-yl)oxy)methyl)hexahydro-1H-pyrrolizin-3-yl)methyl 4-(4-(1-(2,6-dioxopiperidin-3-yl)-3-methyl-2-oxo-2,3-dihydro-1H-benzo[d]imidazol-5-yl)phenoxy)piperidine-1-carboxylate], for which the DC50 on KRAS G12V and at KRAS G12D (setting [1]) was more than 0.1 µM each time.

At KRAS G12V, `CCc1c(F)ccc2cccc(-c3ncc4c(N5CCC[C@@](C)(O)C5)nc(OC[C@@]56CCCN5[C@H](COC(=O)NCCOCCOCCOCCOc5ccc7c(c5)n(C)c(=O)n7C5CCC(=O)NC5=O)CC6)nc4c3F)c12` (stereo partly drawn) [Compound 105, ((3S,7aS)-7a-(((7-(8-ethyl-7-fluoronaphthalen-1-yl)-8-fluoro-4-((R)-3-hydroxy-3-methylpiperidin-1-yl)pyrido[4,3-d]pyrimidin-2-yl)oxy)methyl)hexahydro-1H-pyrrolizin-3-yl)methyl (2-(2-(2-(2-((1-(2,6-dioxopiperidin-3-yl)-3-methyl-2-oxo-2,3-dihydro-1H-benzo[d]imidazol-5-yl)oxy)ethoxy)ethoxy)ethoxy)ethyl) carbamate] displayed a DC50 of more than 0.1 µM. On KRAS G12D (class symbols), this molecule came in with a DC50 of more than 0.3 µM and a Dmax of 15 to 50%.

Turning to `C#Cc1c(F)ccc2cccc(-c3ncc4c(N5CCC[C@@](C)(O)C5)nc(OCC5(CN6CCN(CC7CCN(c8cccc9c8n(C)c(=O)n9C8CCC(=O)NC8=O)CC7)CC6)CC5)nc4c3F)c12` (some centres unmarked) [Compound 78], the DC50 on KRAS G12V was more than 0.1 µM; at KRAS G12D (class symbols), more than 0.3 µM.

Regarding `CCc1c(F)ccc2cc(O)cc(-c3ccc4c(N5CCC[C@@](C)(O)C5)nc(OCC56CCCN5C(COC(=O)N5CCC(CN7CCC(c8ccc9c(c8)n(C)c(=O)n9C8CCC(=O)NC8=O)CC7)CC5)CC6)nc4c3F)c12` (stereo partly drawn) [Compound 304, (7a-(((7-(8-ethyl-7-fluoro-3-hydroxynaphthalen-1-yl)-8-fluoro-4-((R)-3-hydroxy-3-methylpiperidin-1-yl)quinazolin-2-yl)oxy)methyl)hexahydro-1H-pyrrolizin-3-yl)methyl 4-((4-(1-(2,6-dioxopiperidin-3-yl)-3-methyl-2-oxo-2,3-dihydro-1H-benzo[d]imidazol-5-yl)piperidin-1-yl)methyl)piperidine-1-carboxylate], the DC50 at KRAS G12V and at KRAS G12D (setting [1]) was more than 0.1 µM throughout.

`CCc1c(F)ccc2cc(O)cc(-c3ncc4c(N5CCC[C@@](C)(O)C5)nc(OC[C@@]56CCCN5[C@H](COC(=O)N5CCC(N7CCC(Oc8ccc9c(c8)n(C)c(=O)n9C8CCC(=O)NC8=O)CC7)CC5)CC6)nc4c3F)c12` (stereo partly drawn) [Compound 439, ((3S,7aS)-7a-(((7-(8-ethyl-7-fluoro-3-hydroxynaphthalen-1-yl)-8-fluoro-4-((R)-3-hydroxy-3-methylpiperidin-1-yl)pyrido[4,3-d]pyrimidin-2-yl)oxy)methyl)hexahydro-1H-pyrrolizin-3-yl)methyl 4-((1-(2,6-dioxopiperidin-3-yl)-3-methyl-2-oxo-2,3-dihydro-1H-benzo[d]imidazol-5-yl)oxy)-[1,4′-bipiperidine]-1′-carboxylate]: the DC50 on KRAS G12V is less than 0.01 µM; on KRAS G12D (class symbols), less than 0.1 µM.

`C#Cc1c(F)ccc2cc(O)cc(-c3ncc4c(N5CCC[C@@](C)(O)C5)nc(OC[C@@]56CCCN5[C@H](COC(=O)N5CCC(CN7CCC(c8cccc9c8n(C)c(=O)n9C8CCC(=O)NC8=O)CC7)CC5)CC6)nc4c3F)c12` (some centres unmarked) [Compound 133]: the DC50 on KRAS G12V was 0.01 to 0.1 µM; at KRAS G12D (class symbols), less than 0.1 µM.

With `CCc1c(F)ccc2cc(O)cc(-c3ncc4c(N5CCC[C@@](C)(O)C5)nc(OC[C@@]56CCCN5[C@H](COc5ccc(CCN7CCC(c8ccc9c(c8)n(C)c(=O)n9C8CCC(=O)NC8=O)CC7)cc5)CC6)nc4c3F)c12` (stereo partly drawn) [Compound 499, 3-(5-(1-(4-(((3S,7aS)-7a-(((7-(8-Ethyl-7-fluoro-3-hydroxynaphthalen-1-yl)-8-fluoro-4-((R)-3-hydroxy-3-methylpiperidin-1-yl)pyrido[4,3-d]pyrimidin-2-yl)oxy)methyl)hexahydro-1H-pyrrolizin-3-yl)methoxy)phenethyl)piperidin-4-yl)-3-methyl-2-oxo-2,3-dihydro-1H-benzo[d]imidazol-1-yl) piperidine-2,6-dione], the figures for the DC50 at KRAS G12V and on KRAS G12D (class symbols) were 0.01 to 0.1 µM and less than 0.1 µM, respectively.

As for `C#Cc1c(F)ccc2cccc(-c3ncc4c(N5CCC[C@@](C)(O)C5)nc(OC[C@@]56CCCN5[C@H](COC(=O)N5CC(OCC7CCN(c8ccc9c(c8)n(C)c(=O)n9C8CCC(=O)NC8=O)CC7)C5)CC6)nc4c3F)c12` (stereo partly drawn) [Compound 130, ((3S,7aS)-7a-(((7-(8-Ethynyl-7-fluoronaphthalen-1-yl)-8-fluoro-4-((R)-3-hydroxy-3-methylpiperidin-1-yl)pyrido[4,3-d]pyrimidin-2-yl)oxy)methyl)hexahydro-1H-pyrrolizin-3-yl)methyl 3-((1-(1-(2,6-dioxopiperidin-3-yl)-3-methyl-2-oxo-2,3-dihydro-1H-benzo[d]imidazol-5-yl)piperidin-4-yl)methoxy) azetidine-1-carboxylate], the DC50 was more than 0.1 µM on KRAS G12V and more than 0.3 µM on KRAS G12D (class symbols).

With `CCc1c(F)ccc2cc(O)cc(-c3ncc4c(N5CCC[C@H]5CO)nc(OC[C@@]56CCCN5[C@H](COC(=O)N5CCC7(CC5)CC(N5CCC(c8ccc9c(c8)n(C)c(=O)n9C8CCC(=O)NC8=O)CC5)C7)CC6)nc4c3F)c12` (stereo partly drawn) [Compound 351, ((3S,7aS)-7a-(((7-(8-ethyl-7-fluoro-3-hydroxynaphthalen-1-yl)-8-fluoro-4-((S)-2-(hydroxymethyl)pyrrolidin-1-yl)pyrido[4,3-d]pyrimidin-2-yl)oxy)methyl)hexahydro-1H-pyrrolizin-3-yl)methyl 2-(4-(1-(2,6-dioxopiperidin-3-yl)-3-methyl-2-oxo-2,3-dihydro-1H-benzo[d]imidazol-5-yl)piperidin-1-yl)-7-azaspiro[3.5]nonane-7-carboxylate], the DC50 at KRAS G12V was less than 0.01 µM; at KRAS G12D (class symbols) it was less than 0.1 µM.
